In publication PMC9135634 (Nature chemical biology, 2022):

How the values were obtained:
HRAS WT = HRAS WT (Homo sapiens, UniProt P01112); test: RAS BRET target engagement assay, live HEK-293 cells; assay type: cell-based
HRAS(G12C) = HRAS(G12C) (Homo sapiens, UniProt P01112, G12C); test: as above
KRAS(G12C) = KRAS(G12C) (Homo sapiens, UniProt P01116, G12C); test: as above; assay type: cell-based; settings: BRET competition
NanoBiT-KRAS WT = NanoBiT-KRAS WT (Homo sapiens, UniProt P01116); test: NanoBiT-RAS luminescence; assay type: cell-based; settings: live cells; titration
KRAS WT = KRAS WT (Homo sapiens, UniProt P01116); test: RAS BRET target engagement assay; assay type: cell-based; settings: across all RAS variants studied
NanoLuc-ABL1 = NanoLuc-ABL1 (Homo sapiens, UniProt P00519); test: NanoBRET TE Intracellular Kinase Assay, K-4; assay type: cell-based
KRAS(D54R) : CRAF(RBD) = KRAS(D54R) : CRAF(RBD) (Homo sapiens, UniProt P01116, D54R); test: NanoBiT-KRAS:CRAF; assay type: cell-based
KRAS(Y96D) = KRAS(Y96D) (Homo sapiens, UniProt P01116, Y96D); test: RAS BRET target engagement assay, live HEK-293 cells; assay type: cell-based
HEK-293 cells = assay type: cell-based; settings: RAS-independent cell line
A375 cells = test: Anti-proliferative activity, CellTiter-Glo 2.0; assay type: cell-based; settings: BRAF V600E, RAS-independent

NanoLuc-ABL1, sequence (P00519 whole entry): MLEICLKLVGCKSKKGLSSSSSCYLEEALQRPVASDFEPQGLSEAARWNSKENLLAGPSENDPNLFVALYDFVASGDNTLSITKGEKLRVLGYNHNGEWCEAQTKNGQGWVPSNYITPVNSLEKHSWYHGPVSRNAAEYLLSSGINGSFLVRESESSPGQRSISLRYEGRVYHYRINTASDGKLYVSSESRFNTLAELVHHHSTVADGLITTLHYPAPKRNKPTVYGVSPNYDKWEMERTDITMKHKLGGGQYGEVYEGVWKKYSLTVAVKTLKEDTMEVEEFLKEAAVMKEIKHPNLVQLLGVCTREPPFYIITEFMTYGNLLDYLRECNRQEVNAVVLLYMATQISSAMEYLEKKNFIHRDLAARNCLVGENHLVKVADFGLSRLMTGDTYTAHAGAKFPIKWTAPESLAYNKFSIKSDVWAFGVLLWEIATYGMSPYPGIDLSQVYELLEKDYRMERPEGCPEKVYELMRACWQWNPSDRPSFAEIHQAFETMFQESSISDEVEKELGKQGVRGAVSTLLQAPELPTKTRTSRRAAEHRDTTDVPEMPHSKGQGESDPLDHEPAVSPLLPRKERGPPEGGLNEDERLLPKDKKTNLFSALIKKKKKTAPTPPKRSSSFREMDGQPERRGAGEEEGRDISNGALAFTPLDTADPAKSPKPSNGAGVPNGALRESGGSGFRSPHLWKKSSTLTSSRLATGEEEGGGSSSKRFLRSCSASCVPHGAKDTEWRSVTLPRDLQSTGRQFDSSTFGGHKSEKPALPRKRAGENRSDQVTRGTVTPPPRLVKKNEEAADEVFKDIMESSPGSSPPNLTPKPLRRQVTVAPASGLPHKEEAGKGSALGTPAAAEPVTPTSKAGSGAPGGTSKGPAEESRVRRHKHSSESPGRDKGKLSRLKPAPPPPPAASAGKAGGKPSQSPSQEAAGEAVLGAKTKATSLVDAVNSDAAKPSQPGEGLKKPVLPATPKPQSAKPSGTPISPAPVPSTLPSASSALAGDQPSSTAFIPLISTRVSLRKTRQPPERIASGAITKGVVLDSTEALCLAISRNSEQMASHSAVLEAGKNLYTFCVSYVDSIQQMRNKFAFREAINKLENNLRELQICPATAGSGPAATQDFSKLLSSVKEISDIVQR

SMILES: C=CC(=O)N1CCN(c2nc(=O)n(-c3c(C)ccnc3C(C)C)c3nc(-c4c(O)cccc4F)c(F)cc23)[C@@H](C)C1 [AMG510, sotorasib]
- BRET engagement (HRAS WT): No engagement
- BRET engagement (HRAS(G12C)): showed vulnerability

SMILES: C=CC(=O)N1CCN(c2ncnc3c(F)c(-c4c(O)cccc4F)c(Cl)cc23)CC1 [ARS-1620]
- hill coefficient (KRAS(G12C)): 1.1

SMILES: Cn1cnc(Cn2ccc3ccc(CNCc4[nH]c5ccccc5c4[C@H]4NC(=O)c5ccc(O)cc54)cc32)c1 [BI-2852]
- effect on RAS dimerization NanoBiT signal (NanoBiT-KRAS WT): did not impact
- Hill coefficients, mean (KRAS WT): 1.9 ± 0.7
- Hill coefficients, range (KRAS WT): 1.3−3.3
- effect on BRET or luminescence in irrelevant target engagement assay (NanoLuc-ABL1): had no effect on the BRET or luminescence
- inhibition of CRAF-RBD interaction with KRAS(D54R) dimers (KRAS(D54R) : CRAF(RBD)): unable to inhibit the interaction

SMILES: CCC(=O)N1CCN(c2nc(OC[C@@H]3CCCN3C)nc3c2CCN(c2cccc4cccc(Cl)c24)C3)C[C@@H]1CC#N [Compound 10]
- BRET engagement (KRAS(Y96D)): not observed

SMILES: C=C(F)C(=O)N1CCN(c2nc(OC[C@@H]3CCCN3C)nc3c2CCN(c2cccc4cccc(Cl)c24)C3)C[C@@H]1CC#N [MRTX849]
- BRET engagement (HRAS WT): No engagement
- BRET engagement (HRAS(G12C)): showed vulnerability
- affinity for HRAS(G12C) weaker than that observed for KRAS(G12C) (HRAS(G12C)): 3 orders of magnitude
- anti-proliferative / cytotoxic effect (HEK-293 cells): the same effect
- anti-proliferative effect (A375 cells): the same effect
